Test results as given in ChEMBL document CHEMBL1131595, “Chemoprotective properties of phenylpropenoids, bis(benzylidene)cycloalkanones, and related Michael reaction acceptors: correlation of potencies as phase 2 enzyme inducers and radical scavengers” (J Med Chem, 1998).

Assay: Scavenging activity of compound (superoxide radicals generated by the oxidation of xanthine and xanthine oxidase),expressed as the percent quenching of luminescence of lucigenin at 50 nM concentration

Compared with `O=C1/C(=C/c2ccccc2O)CC/C1=C\c1ccccc1O`, `O=C1/C(=C/c2ccccc2O)CCC/C1=C\c1ccccc1O` is lower in Free radical scavenging: 70% for the first, 42% for the second.

`O=C1/C(=C/c2ccccc2)CCC/C1=C\c1ccccc1` and `O=C1/C(=C/c2ccccc2)CCCC/C1=C\c1ccccc1` are the same in Free radical scavenging: 11% for the first, 11% for the second.

Going from `COc1ccccc1/C=C1\CCC/C(=C\c2ccccc2OC)C1=O` to `COc1cc(/C=C2\CCC/C(=C\c3ccc(O)c(OC)c3)C2=O)ccc1O`, the Free radical scavenging rises from 19% to 30%.

`O=C1/C(=C/c2ccccc2)CC/C1=C\c1ccccc1` gave a Free radical scavenging of 10%.
